# From patent US9868737B2, “Pyridino[1,2-A]pyrimidone analogue used as MTOR/P13K inhibitor” (CISEN PHARMACEUTICAL CO., LTD., priority 2014, dated 2018)
# Where two headings read alike, the source gives them in different places.
# Tested on: MCF-7 cells
# Assay: In vitro test of cell activity (MCF-7 cells, insulin stimulation, ELISA-One fluorescence)
# Assay type: cell-based
# Conditions: for inhibition at 0.5 µM: conc. 0.5 μM; for inhibition at 1 µM: conc. 1 μM; for inhibition at 0.25 µM: conc. 0.25 μM
# Outline: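 MCF-7 cells, seeded at 2.5×10^4/well in 10% FBS medium, were given compound in serum-free medium for 2 h at one concentration (screen) or a series (IC50). Insulin stimulation followed at […] final for 30 min; lysates assayed by ELISA-One sandwich immunoassay with fluorescence read-out.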
# [1] = Homo sapiens, MCF7, MCF-7 cells, read-out: % inhibition AKT
# [2] = Homo sapiens, MCF7, MCF-7 cells, read-out: % inhibition p70s6k
# [3] = Homo sapiens, MCF7, MCF-7 cells, read-out: IC50 p-AKT
# [4] = Homo sapiens, MCF7, MCF-7 cells, read-out: IC50 p-p70S6K
smiles,measurement,setting,value
COc1ncc(-c2cn3c(=O)ccnc3cc2F)cc1NS(=O)(=O)c1c(F)cccc1F [compound 114],inhibition at 0.5 µM,[1],53%
same,inhibition at 0.5 µM,[2],-1.2%
COCCOc1cnc2ccc(-c3cnc(OC)c(NS(=O)(=O)c4sc(OC)nc4C)c3)cn2c1=O [compound 195],IC50,[3],≤ 0.05 µM
COc1ncc(-c2ccc3nc(C)cc(=O)n3c2)cc1NS(=O)(=O)c1ccc(F)cc1C [compound 229],inhibition at 0.5 µM,[1],31.7%
same,inhibition at 0.5 µM,[2],1.4%
"COc1ncc(-c2ccc3nccc(=O)n3n2)cc1NS(=O)(=O)c1ccc(F)cc1F [compound 71, 2,4-difluoro-N-(2-methoxy-5-(4-oxo-4H-pyrimido[1,2-b]pyridazin-7-yl)pyridin-3-yl)benzsulfamide]",inhibition at 0.5 µM,[1],63.2%
same,inhibition at 0.5 µM,[2],20.7%
"COc1ncc(-c2ccc3nc(N)cc(=O)n3c2)cc1NS(=O)(=O)c1sc(C)nc1C [compound 236, N-(5-(2-amino-4-oxo-4H-pyrido[1,2-a]pyrimidin-7-yl)-2-methoxypyridin-3-yl)-2,4-dimethylthiazolyl-5-sulfamide]",IC50,[3],0.05 to 0.1 µM
COc1ncc(-c2ccc3nccc(=O)n3c2)cc1NS(=O)(=O)C1CC1 [compound 9],inhibition at 1 µM,[1],76%
same,inhibition at 1 µM,[2],38.4%
COc1ncc(-c2ccc3nc(C)cc(=O)n3c2)cc1NS(=O)(=O)c1ccc(F)cc1Cl [compound 222],inhibition at 0.25 µM,[1],-26.7%
same,inhibition at 0.25 µM,[2],2%
COc1ncc(-c2ccc3ncc(N(C)C)c(=O)n3c2)cc1NS(=O)(=O)c1ccc(F)cc1F [compound 96],IC50,[3],> 0.25 µM
COc1ncc(-c2ccc3ncc(F)c(=O)n3c2)cc1NS(=O)(=O)c1ccccc1F [compound 64],inhibition at 0.5 µM,[1],87.8%
same,inhibition at 0.5 µM,[2],91.7%
same,IC50,[3],≤ 0.05 µM
same,IC50,[4],≤ 0.05 µM
COc1ncc(-c2ccc3ncc(Cl)c(=O)n3c2)cc1NS(=O)(=O)c1cnc(C)n1C [compound 154],inhibition at 0.25 µM,[1],85.4%
same,inhibition at 0.25 µM,[2],92.6%
same,IC50,[3],0.1 to 0.25 µM
same,IC50,[4],0.05 to 0.1 µM
COc1ncc(-c2cn3c(=O)ccnc3cn2)cc1NS(=O)(=O)c1ccc(F)cc1 [compound 43],inhibition at 0.5 µM,[1],17.8%
same,inhibition at 0.5 µM,[2],16.2%
COc1ncc(-c2ccc3ncc(Cl)c(=O)n3c2)cc1NS(=O)(=O)c1nc(C)c(C)s1 [compound 157],inhibition at 0.25 µM,[1],79.2%
same,inhibition at 0.25 µM,[2],90.8%
same,IC50,[3],≤ 0.05 µM
same,IC50,[4],0.05 to 0.1 µM
COc1ncc(-c2ccc3nccc(=O)n3n2)cc1NS(=O)(=O)c1cc(F)ccc1F [compound 76],inhibition at 0.5 µM,[1],54.3%
same,inhibition at 0.5 µM,[2],12.2%
COc1ncc(-c2ccc3ncc(OCC4COC4)c(=O)n3c2)cc1NS(=O)(=O)c1cccc(C)c1 [compound 248],IC50,[3],0.05 to 0.1 µM
COc1ncc(-c2ccc3ncc(Cl)c(=O)n3c2)cc1NS(=O)(=O)c1ccccc1F [compound 137],inhibition at 0.5 µM,[1],93.3%
same,inhibition at 0.5 µM,[2],87.1%
same,IC50,[3],≤ 0.05 µM
same,IC50,[4],0.1 to 0.25 µM
CCOc1ncc(-c2ccc3nccc(=O)n3c2)cc1NS(=O)(=O)c1ccccc1F [compound 29],inhibition at 1 µM,[1],59.6%
same,inhibition at 1 µM,[2],26.5%
COc1ncc(-c2ccc3nccc(=O)n3c2)cc1NS(=O)(=O)c1ccccc1 [compound 12],inhibition at 1 µM,[1],95.4%
same,inhibition at 1 µM,[2],91.5%
same,IC50,[3],0.05 to 0.1 µM
same,IC50,[4],0.1 to 0.25 µM
O=c1ccnc2ccc(-c3cnc(Cl)c(NS(=O)(=O)N4CCOCC4)c3)cn12 [compound 31],inhibition at 1 µM,[1],67.8%
same,inhibition at 1 µM,[2],45.5%
COc1ncc(-c2ccc3ncc(OCC4(C)COC4)c(=O)n3c2)cc1NS(=O)(=O)c1sc(C)nc1C [compound 197],IC50,[3],≤ 0.05 µM
COc1ncc(-c2ccc3ncc(OC4CCC(OC)CC4)c(=O)n3c2)cc1NS(=O)(=O)c1sc(C)nc1C (stereo not shown) [compound 208],IC50,"MCF-7 cells, read-out: IC50 p-AKT",≤ 0.05 µM
COc1ncc(-c2ccc3ncc(-n4ccc(C)n4)c(=O)n3c2)cc1NS(=O)(=O)c1sc(C)nc1C [compound 218],inhibition at 0.25 µM,[1],85.2%
same,inhibition at 0.25 µM,[2],85%
same,IC50,[3],0.1 to 0.25 µM
same,IC50,[4],0.1 to 0.25 µM
COc1ncc(-c2cn3c(=O)ccnc3cc2C)cc1NS(=O)(=O)c1ccc(C(F)(F)F)cc1 [compound 130],inhibition at 0.5 µM,[1],2.3%
same,inhibition at 0.5 µM,[2],2.6%
COc1ncc(-c2ccc3nccc(=O)n3c2)cc1NS(=O)(=O)c1ccc(F)cc1 [compound 11],inhibition at 1 µM,[1],94.7%
same,inhibition at 1 µM,[2],52.3%
same,IC50,[3],0.05 to 0.1 µM
same,IC50,[4],0.1 to 0.25 µM
Cc1ncc(-c2ccc3nccc(=O)n3c2)cc1NS(=O)(=O)c1ccccc1F [compound 10],inhibition at 1 µM,[1],81.9%
same,inhibition at 1 µM,[2],27.8%
COc1ncc(-c2ccc3ncc(OCC4OCCO4)c(=O)n3c2)cc1NS(=O)(=O)c1sc(C)nc1C [compound 186],IC50,[3],≤ 0.05 µM
COc1ncc(-c2ccc3ncc(F)c(=O)n3c2)cc1NS(=O)(=O)c1ccc(F)cc1C [compound 66],inhibition at 0.5 µM,[1],89%
same,inhibition at 0.5 µM,[2],91.3%
same,IC50,[3],≤ 0.05 µM
same,IC50,[4],≤ 0.05 µM
COc1ncc(-c2ccc3ncc(F)c(=O)n3c2)cc1NS(=O)(=O)c1c(F)cccc1F [compound 68],inhibition at 0.5 µM,[1],88%
same,inhibition at 0.5 µM,[2],90.3%
same,IC50,[3],≤ 0.05 µM
same,IC50,[4],0.05 to 0.1 µM
COc1ncc(-c2ccc3ncc(Cl)c(=O)n3c2)cc1NS(=O)(=O)c1ccccc1 [compound 142],inhibition at 0.5 µM,[1],94.8%
same,inhibition at 0.5 µM,[2],90.8%
same,IC50,[3],≤ 0.05 µM
same,IC50,[4],0.05 to 0.1 µM
COc1ncc(-c2ccc3nccc(=O)n3c2C)cc1NS(=O)(=O)c1c(F)cccc1F [compound 58],inhibition at 0.5 µM,[1],60.3%
same,inhibition at 0.5 µM,[2],32.8%
O=c1ccnc2ccc(-c3cnc(Cl)c(NS(=O)(=O)c4ccccc4F)c3)cn12 [compound 19],inhibition at 1 µM,[1],91.2%
same,inhibition at 1 µM,[2],74.1%
same,IC50,[3],≤ 0.05 µM
same,IC50,[4],> 0.25 µM
COc1ncc(-c2ccc3ncc(OC)c(=O)n3c2)cc1NS(=O)(=O)c1ccc(Cl)s1 [compound 108],inhibition at 0.25 µM,[1],92.4%
same,inhibition at 0.25 µM,[2],82.5%
same,IC50,[3],≤ 0.05 µM
same,IC50,[4],≤ 0.05 µM
COc1ncc(-c2ccc3ncc(OCCO)c(=O)n3c2)cc1NS(=O)(=O)c1sc(C)nc1C [compound 180],IC50,[3],≤ 0.05 µM
COc1ncc(-c2cn3c(=O)ccnc3cn2)cc1NS(=O)(=O)c1ccccc1Cl [compound 51],inhibition at 0.5 µM,[1],64.1%
same,inhibition at 0.5 µM,[2],13.6%
COCCOc1cnc2ccc(-c3cnc(OC)c(NS(=O)(=O)c4cc(Cl)c(F)cc4F)c3)cn2c1=O [compound 273],IC50,[3],0.1 to 0.25 µM
"COCCOc1ncc(-c2ccc3ncc(Cl)c(=O)n3c2)cc1NS(=O)(=O)c1ccc(F)cc1F [compound 231, N-[5-(3-chloro-4-oxo-4H-pyrido[1,2-a]pyrimidin-7-yl)-2-(2-methoxy-ethoxy)-pyridin-3-yl]-2,4-difluorobenzsulfamide]",IC50,[3],> 0.25 µM
COc1ncc(-c2cn3c(=O)ccnc3cn2)cc1NS(=O)(=O)c1cccc(F)c1 [compound 42],inhibition at 0.5 µM,[1],9.1%
same,inhibition at 0.5 µM,[2],5.1%
COc1ncc(-c2ccc3ncc(-n4ccc(C)n4)c(=O)n3c2)cc1NS(=O)(=O)c1ccccc1Cl [compound 220],inhibition at 0.25 µM,[1],51.2%
same,inhibition at 0.25 µM,[2],11%
COc1ncc(-c2ccc3ncc(OC)c(=O)n3c2)cc1NS(=O)(=O)c1ccccc1Cl [compound 105],inhibition at 0.5 µM,[1],95.4%
same,inhibition at 0.5 µM,[2],90.3%
same,IC50,[3],≤ 0.05 µM
same,IC50,[4],≤ 0.05 µM
Cc1ncc(-c2ccc3nccc(=O)n3c2)cc1NS(=O)(=O)c1ccc(F)cc1 [compound 8],inhibition at 1 µM,[1],84.6%
same,inhibition at 1 µM,[2],60.5%
